Where “and” joins values, the source holds several entries; their conditions need not be identical. Equal entries are not always repeated.
What was measured:
[1] = DPPH radical scavenging assay; format: biochemical; details: for Radical Scavenging Activity (%): compared to standard ascorbic acid (100%); for Final time of reaction: time to steady state
Description: The DPPH assay is based on the change in absorbance at 515 nm, upon reduction of the DPPH radical, by an antioxidant. The antioxidant activity of a putative antioxidant is measured by monitoring the decrease in absorbance when the colour of the solution fades. In this assay, the reaction between the test antioxidant and DPPH radical is allowed to continue until it reaches a steady state. The amount of the radical quenched when steady state is reached is dependent on the antioxidant capacity and the concentration of the antioxidant. 100 μl (1 mg/3 ml) of the respective sample was added to 3.9 ml DPPH solution (25 mg/L in methanol). The decrease in absorbance at 515 nm was monitored using a Unicam UV-visible spectrophotometer, until the reaction reached steady state.

[2] = system: UVA-induced H2O2 production in keratinocytes; test: ROS assay (DHR 123, FACS) in UVA-irradiated keratinocytes; format: cell-based, human
From the text: UVA irradiation of cultured human skin cells results in over-elevated levels of H2O2 and other ROS (reactive oxygen species), with H2O2 being the predominant species. Dihydrorhodamine (DHR 123) can be used to detect H2O2 produced following irradiating the cells with UVA. […] The mean fluorescence (MF), read on a fluorescent activated cell sorter (FACS) machine thus indicates intracellular H2O2 production. To elucidate the effect that Polymer Compound 57 would have on the over-expression of ROS due to irradiation, H2O2 production in keratinocytes was measured. The cells were first treated with the various concentrations of the Polymer Compound 57, irradiated with UVA and then exposed to the dye DHR 123.

[3] = FRAP assay (iron (III) reduction ability); format: biochemical; details: 1 ml (1 mg/3 ml) sample
Description: The FRAP assay measures the ability of an antioxidant to reduce a ferroin analog, the Fe complex of tripyridyltriazine, Fe (TPTZ)^3+, to the intensely blue coloured Fe^2+ in an acidic medium. Results are obtained as absorbance increases at 593 nm and can be expressed relative to an antioxidant standard, ascorbic acid in this case.
1 ml (1 mg/3 ml) of the respective sample was added to 2.5 ml of potassium phosphate buffer (pH 7, 500 mM) 2.5 ml potassium ferricyanide was added. This was followed by incubation at 50° C. for 20 min. 10% (v/v) trichloracetic acid was added to stop the reaction. 2.5 ml of water was then added to 2.5 ml of the reaction. Iron chloride (0.5 ml) was added. The reaction was allowed to stand for 30 min after which the absorbance was read at 700 nm.

AIF = test: Western blot of AIF expression in UVA-irradiated HaCaTs; format: cell-based, human; details: for % AIF Expression: relative to control (100%)
From the text: (§1) Apoptosis can take place through the extrinsic pathway or the intrinsic pathway. The extrinsic pathway involves transmembrane receptor-mediated interactions which involve members of the tumour necrosis factor (TNF). The intrinsic pathway is a mitochondrial-initiated event and thus is of interest for this study. The intrinsic pathway can progress in a caspase-dependent or independent way. The caspase-independent route involves a protein called AIF which when released from the mitochondria, translocates directly to the nucleus and induces apoptosis. The alternative caspase-dependent route involves members of the Bcl-2 family of proteins. This family of proteins is responsible for regulating the permeability of the mitochondrial membrane and can be either pro-apoptotic or anti-apoptotic; Bcl-2 is anti-apoptotic while Bax is pro-apoptotic. The cells' sensitivity to apoptotic stimuli depends on the balance of pro-apoptotic (Bax) and anti-apoptotic (Bcl-2) proteins. […] An excess of Bax results in the cells being more susceptible to apoptosis, and an excess of Bcl-2 renders the cells more resistant to apoptosis. To determine the nature of the anti-apoptotic effect mediated by Polymer Compound 57 and hydroxytyrosol due to UVA irradiation, the Bax/Bcl-2 ratio was studied using Western blot analysis. To evaluate the expression of Bcl-2, Bax and AIF, the cells were cultured and treated with varying concentrations between 200 and 1000 μM of Polymer Compound 57 and hydroxytyrosol for 18 hrs, and then irradiated at 22.3 J/cm^2. Protein extraction was conducted and proteins were quantified using the BCA method. […] The purpose of this control is to ensure that it is only the UVA rays that result in the observed effects, and not the heat in the chamber. Alpha tubilin was used as a loading control in each experiment to ensure that the results were quantified correctly. Since the Western blot results are quantified by band size, it is important to ensure that each sample has the same amount of protein when loaded and the loading control helps to determine this. The band obtained when the proteins are probed with the loading control represent the amount of protein in that loaded sample.

HaCaTs = test: XTT cell viability assay in HaCaTs; format: cell-based, human
Description: To evaluate the toxicity of Polymer Compound 57 an XTT assay was conducted. The assay is based on the ability of viable cells to reduce yellow XTT tetrazolium salts to an orange formazan which is then measured at an absorbance of 450 nm. The HaCaTs were incubated overnight with increasing concentrations of Polymer Compound 57. Cell viability was then evaluated by adding the XTT solution, incubating for 4 hrs at 37° C., and then reading the absorbance at 450 nm.
To further explore the effect of the antioxidants a dose and time response study was carried out to determine the long term effect of Polymer Compound 57.

Bcl-2 = test: Western blot of Bcl-2 expression in UVA-irradiated HaCaTs; format: cell-based, human; details: for % Bcl-2 Expression: relative to control (100%)
From the text: as §1

Bax = test: Western blot of Bax expression in UVA-irradiated HaCaTs; format: cell-based, human; details: for % Bax Expression: relative to control (100%)
From the text: as §1

[4] = system: low density lipoprotein (LDL); test: LDL oxidation assay (conjugated diene formation); format: biochemical; details: 50 μM test antioxidant; LDL oxidized with 5 μM CuCl2; relative to ascorbic acid
Description: Oxidation of low density lipoprotein (LDL) was performed according to the method developed by Nardini et al (1995). LDL was dialyzed in a 200 fold volume of PBS of pH 7 in the dark for 18 hrs. 100 μg/ml LDL, determined with the Bradford method, was oxidized with 5 μM CuCl2 for 4 hrs at 37° C. in the presence and absence of 50 μM test antioxidant. Conjugated diene formation was measured spectroscopically at 234 nm using a Unicam UV-visible spectrophotometer.
The antioxidant ability of Polymer Compound 57 to inhibit LDL oxidation was assessed by adding it to a reaction mixture containing LDL previously treated with copper to initiate the oxidation. The antioxidant ability of the compound was measured based on the increase in absorbance due to diene conjugation at 234 nm.

Q: With `O=C1O[C@H]([C@@H](O)CO)C(O)=C1O` [Ascorbic acid, reference compound] as the molecule, how does the “Radical Scavenging Activity (%)” value ([1]; 0.002M sample) read?
A: The value was 100%.

Q: What about the “Final time of reaction” value ([1]; 0.002M sample) of the same molecule?
A: The value was 4 min.

Q: Which results are given for `OCCc1cc(O)c(O)c(-c2cc(CCO)cc(O)c2O)c1` [Polymer Compound 57]?
A: mean fluorescence (ROS level) relative to control of 100% ([2]; 200 μM): 87-100%; mean fluorescence (ROS level) relative to control of 100% ([2]; 333 μM): 85%; antioxidant activity equivalent of ascorbic acid [3]: 363 mg/L; AIF levels reduced to, relative to the control (AIF; 200 μM): 28%; % AIF Expression (AIF; 200 μM): 78%; AIF levels reduced to, relative to the control (AIF; 333 μM): 32%; % AIF Expression (AIF; 333 μM): 74%; AIF levels reduced to, relative to the control (AIF; 500 μM): 32%; % AIF Expression (AIF; 1000 μM): 38%; long term toxicity to HaCaTs (HaCaTs; 3 day period, concentrations non-toxic over 24 hr): non-toxic; concentrations resulting in marked decreases in cell viability (HaCaTs; HaCaTs, overnight incubation): higher than 500 μM; concentrations with no negative effect on cell viability (HaCaTs; HaCaTs, overnight incubation): 200 to 500 µM; % Bcl-2 Expression (Bcl-2; 200 μM): 50%; % Bcl-2 Expression (Bcl-2; 333 μM): 84%; increase in Bcl-2 levels of expression relative to the control (Bcl-2; 500 μM): 16%; % Bcl-2 Expression (Bcl-2; 1000 μM): 118%; reduction of Bax levels relative to the control (Bax; 200 μM): 75% and 70%; % Bax Expression (Bax; 200 μM): 31%; reduction of Bax levels relative to the control (Bax; 333 μM): 87.5%; % Bax Expression (Bax; 333 μM): 17%; reduction of Bax levels relative to the control (Bax; 500 μM): 87.5%; % Bax Expression (Bax; 1000 μM): 14%; decrease of Bax levels relative to the control (100%) (Bax; "lowest concentration" as printed): 85%; effect on absorbance at 234 nm due to diene conjugation [4]: absorbance-decreasing effect; Radical Scavenging Activity (%) ([1]; 0.0004M sample): 86.7%; Final time of reaction ([1]; 0.0004M sample): 7 min

Q: Which results are given for `OCCc1ccc(O)c(O)c1` [Hydroxytyrosol]?
A: % AIF Expression (AIF; 200 μM): 91%; % AIF Expression (AIF; 333 μM): 82%; reduction of AIF levels relative to the control (AIF; 1000 μM): 15%; % AIF Expression (AIF; 1000 μM): 42%; % Bcl-2 Expression (Bcl-2; 200 μM): 83%; % Bcl-2 Expression (Bcl-2; 333 μM): 90%; increase in Bcl-2 levels of expression relative to the control (Bcl-2; 1000 μM): 7%; % Bcl-2 Expression (Bcl-2; 1000 μM): 110%; % Bax Expression (Bax; 200 μM): 128%; % Bax Expression (Bax; 333 μM): 116%; % Bax Expression (Bax; 1000 μM): 100%

Source: patent US8663608B2, “Hydroxytyrosol compounds” (University of Cape Town, priority 2009, dated 2014)
